According to US8969554B2, “6-acyl-1,2,4-triazine-3,5-dione derivative and herbicides” (Kumiai Chemical Industry Co., Ltd., priority 2010, dated 2015):

How the values were obtained:
Type in all cases: in vivo
[1] = test system: Echinochloa oryzicola; test: Herbicidal activity by paddy field soil treatment (Test Example 1); parameters: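 index 0 to 10 in 10% steps of herbicidal effect with 10 meaning complete death and 0 below 10%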; settings: 1000 g of effective component per hectare, evaluated on day 21 after the treatment, criteria of Table 72
Method in brief: (§1)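 Pre-emergence water-surface application one day after sowing into flooded (3 cm) paddy soil, dose 1000 g effective component per hectare from a diluted wettable powder. Plants kept in greenhouse and rated for herbicidal effect 21 days post-treatment.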

[2] = test system: Monochoria vaginalis; test: as above; parameters: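 index 0 to 10 in 10% steps of herbicidal effect with 10 meaning complete death and 0 below 10%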; settings: 1000 g of effective component per hectare, evaluated on day 21 after the treatment, criteria of Table 72
Method in brief: as §1

[3] = test system: Scirpus juncoides Rocxb.; test: as above; parameters: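 index 0 to 10 in 10% steps of herbicidal effect with 10 meaning complete death and 0 below 10%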; settings: applied on water surface, 1000 g of effective component per hectare, day 21 after the treatment
Method in brief: as §1

[4] = test system: A. retroflexus; test: Herbicidal activity by field soil treatment (Test example 2); parameters: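 index 0 to 10 in 10% steps of herbicidal effect with 10 meaning complete death and 0 below 10%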; settings: 1000 g effective component per hectare, day 21 after the treatment
Method in brief: (§2)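 Pre-emergence soil spray: wettable-powder formulation in water at 1000 g active ingredient per hectare (1000 L/ha) onto freshly sown, soil-covered seeds in field soil. Scoring of herbicidal effect by defined criteria 21 days post-treatment, plants kept in a greenhouse.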

[5] = test system: Echinochloa crus-galli; test: as above; parameters: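 index 0 to 10 in 10% steps of herbicidal effect with 10 meaning complete death and 0 below 10%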; settings: 1000 g effective component per hectare, day 21 after the treatment
Method in brief: as §2

[6] = test system: Indian millet; test: as above; parameters: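 index 0 to 10 in 10% steps of herbicidal effect with 10 meaning complete death and 0 below 10%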; settings: 1000 g effective component per hectare, day 21 after the treatment
Method in brief: as §2

[7] = test system: foxtail; test: as above; settings: 1000 g effective component per hectare, day 21 after the treatment;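 further: index 0 to 10 in 10% steps of herbicidal effect with 10 meaning complete death and 0 below 10%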
Method in brief: as §2

[8] = test system: A. retroflexus; test: Herbicidal activity by field foliage treatment (Test example 3); parameters: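 index 0 to 10 in 10% steps of herbicidal effect with 10 meaning complete death and 0 below 10%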; settings: 1000 g effective component per hectare, day 14 after the treatment
Method in brief: (§3)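 Scoring of herbicidal effect by set criteria took place 14 days post-spray. Plants had been raised 2 weeks in field soil under glass before whole-plant foliar application of diluted wettable powder (1000 g active component/ha, spray volume 1000 L/ha).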

[9] = test system: Indian millet; test: as above; parameters: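 index 0 to 10 in 10% steps of herbicidal effect with 10 meaning complete death and 0 below 10%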; settings: 1000 g effective component per hectare, day 14 after the treatment
Method in brief: as §3

[10] = test system: Echinochloa crus-galli; test: as above; parameters: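 index 0 to 10 in 10% steps of herbicidal effect with 10 meaning complete death and 0 below 10%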; settings: 1000 g effective component per hectare, day 14 after the treatment
Method in brief: (§4)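 Herbicidal effect was rated on day 14 following a foliar spray of 1000 g active ingredient per hectare, applied as water-diluted wettable powder at 1000 L/ha. Plants had been raised for 2 weeks in field soil under greenhouse conditions before spraying.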

[11] = test system: Setaria viridis; test: as above; settings: 1000 g effective component per hectare, day 14 after the treatment;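 further: index 0 to 10 in 10% steps of herbicidal effect with 10 meaning complete death and 0 below 10%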
Method in brief: as §4

Structure (SMILES): Cn1nc(C(=O)C2=C(O)CCCC2=O)c(=O)n(-c2c(Cl)cccc2Cl)c1=O [I-86]
- Herbicidal effects index number, Echinochloa oryzicola [1]: 10
- Herbicidal effects index number, Monochoria vaginalis [2]: 10
- herbicidal effect index, S. juncoides Rocxb. [3]: 10
- herbicidal effect index, Amaranthus retroflexus [4]: 10
- herbicidal effect index, Echinochloa crus-galli [5]: 10
- herbicidal effect index, Abutilon theophrasti [6]: 9
- herbicidal effect index, Setaria viridis [7]: 9
- herbicidal effect index, Amaranthus retroflexus [8]: 10
- herbicidal effect index, Abutilon theophrasti [9]: 10
- herbicidal effect index, Echinochloa crus-galli [10]: 9
- herbicidal effect index, Setaria viridis [11]: 9

Structure (SMILES): Cn1nc(C(=O)C2=C(O)CCCC2=O)c(=O)n(-c2ccc(-c3ccccc3)cc2)c1=O [I-271]
- Herbicidal effects index number, Echinochloa oryzicola [1]: 8
- Herbicidal effects index number, Monochoria vaginalis [2]: 8
- herbicidal effect index, S. juncoides Rocxb. [3]: 10
- herbicidal effect index, Amaranthus retroflexus [4]: 10
- herbicidal effect index, Echinochloa crus-galli [5]: 10
- herbicidal effect index, Abutilon theophrasti [6]: 10
- herbicidal effect index, Setaria viridis [7]: 10
- herbicidal effect index, Amaranthus retroflexus [8]: 10
- herbicidal effect index, Abutilon theophrasti [9]: 9
- herbicidal effect index, Echinochloa crus-galli [10]: 10
- herbicidal effect index, Setaria viridis [11]: 7

Structure (SMILES): Cn1nc(C(=O)C2=C(O)CCCC2=O)c(=O)n(-c2cc(F)cc(F)c2)c1=O [I-76]
- Herbicidal effects index number, Echinochloa oryzicola [1]: 10
- Herbicidal effects index number, Monochoria vaginalis [2]: 10
- herbicidal effect index, S. juncoides Rocxb. [3]: 10
- herbicidal effect index, Amaranthus retroflexus [4]: 10
- herbicidal effect index, Echinochloa crus-galli [5]: 10
- herbicidal effect index, Abutilon theophrasti [6]: 10
- herbicidal effect index, Setaria viridis [7]: 9
- herbicidal effect index, Amaranthus retroflexus [8]: 10
- herbicidal effect index, Abutilon theophrasti [9]: 10
- herbicidal effect index, Echinochloa crus-galli [10]: 10
- herbicidal effect index, Setaria viridis [11]: 9

Structure (SMILES): Cn1nc(C(=O)C2=C(O)CCCC2=O)c(=O)n(-c2ccccc2[N+](=O)[O-])c1=O [I-66]
- Herbicidal effects index number, Echinochloa oryzicola [1]: 10
- Herbicidal effects index number, Monochoria vaginalis [2]: 10
- herbicidal effect index, S. juncoides Rocxb. [3]: 10
- herbicidal effect index, Amaranthus retroflexus [4]: 10
- herbicidal effect index, Echinochloa crus-galli [5]: 10
- herbicidal effect index, Abutilon theophrasti [6]: 10
- herbicidal effect index, Setaria viridis [7]: 10
- herbicidal effect index, Amaranthus retroflexus [8]: 10
- herbicidal effect index, Abutilon theophrasti [9]: 10
- herbicidal effect index, Echinochloa crus-galli [10]: 10
- herbicidal effect index, Setaria viridis [11]: 10

Structure (SMILES): Cc1ncccc1-n1c(=O)c(C(=O)C2=C(O)CCCC2=O)nn(C)c1=O [I-277]
- Herbicidal effects index number, Echinochloa oryzicola [1]: 9
- Herbicidal effects index number, Monochoria vaginalis [2]: 9
- herbicidal effect index, S. juncoides Rocxb. [3]: 10
- herbicidal effect index, Amaranthus retroflexus [4]: 8
- herbicidal effect index, Echinochloa crus-galli [5]: 8
- herbicidal effect index, Abutilon theophrasti [6]: 7
- herbicidal effect index, Setaria viridis [7]: 8
- herbicidal effect index, Amaranthus retroflexus [8]: 10
- herbicidal effect index, Abutilon theophrasti [9]: 9
- herbicidal effect index, Echinochloa crus-galli [10]: 10
- herbicidal effect index, Setaria viridis [11]: 9

Structure (SMILES): Cn1nc(C(=O)C2=C(O)CCCC2=O)c(=O)n(CC(F)(F)F)c1=O [I-10]
- Herbicidal effects index number, Echinochloa oryzicola [1]: 10
- Herbicidal effects index number, Monochoria vaginalis [2]: 10
- herbicidal effect index, S. juncoides Rocxb. [3]: 10
- herbicidal effect index, Amaranthus retroflexus [4]: 10
- herbicidal effect index, Echinochloa crus-galli [5]: 10
- herbicidal effect index, Abutilon theophrasti [6]: 10
- herbicidal effect index, Setaria viridis [7]: 10
- herbicidal effect index, Amaranthus retroflexus [8]: 10
- herbicidal effect index, Abutilon theophrasti [9]: 9
- herbicidal effect index, Echinochloa crus-galli [10]: 8
- herbicidal effect index, Setaria viridis [11]: 7

Structure (SMILES): Cn1nc(C(=O)C2=C(O)CCCC2=O)c(=O)n(-c2cccc(F)c2F)c1=O [I-77]
- Herbicidal effects index number, Echinochloa oryzicola [1]: 10
- Herbicidal effects index number, Monochoria vaginalis [2]: 10
- herbicidal effect index, S. juncoides Rocxb. [3]: 10
- herbicidal effect index, Amaranthus retroflexus [4]: 10
- herbicidal effect index, Echinochloa crus-galli [5]: 9
- herbicidal effect index, Abutilon theophrasti [6]: 10
- herbicidal effect index, Setaria viridis [7]: 9
- herbicidal effect index, Amaranthus retroflexus [8]: 10
- herbicidal effect index, Abutilon theophrasti [9]: 10
- herbicidal effect index, Echinochloa crus-galli [10]: 10
- herbicidal effect index, Setaria viridis [11]: 10

Structure (SMILES): Cc1cccc(-n2c(=O)c(C(=O)C3=C(O)CCCC3=O)nn(C)c2=O)c1C [I-89]
- Herbicidal effects index number, Echinochloa oryzicola [1]: 10
- Herbicidal effects index number, Monochoria vaginalis [2]: 10
- herbicidal effect index, S. juncoides Rocxb. [3]: 10
- herbicidal effect index, Amaranthus retroflexus [4]: 10
- herbicidal effect index, Echinochloa crus-galli [5]: 9
- herbicidal effect index, Abutilon theophrasti [6]: 10
- herbicidal effect index, Setaria viridis [7]: 8
- herbicidal effect index, Amaranthus retroflexus [8]: 10
- herbicidal effect index, Abutilon theophrasti [9]: 10
- herbicidal effect index, Echinochloa crus-galli [10]: 9
- herbicidal effect index, Setaria viridis [11]: 10

Structure (SMILES): Cc1ccccc1-n1c(=O)c(C(=O)C2=C(O)CCCC2=O)nn(C)c1=O [I-57]
- Herbicidal effects index number, Echinochloa oryzicola [1]: 10
- Herbicidal effects index number, Monochoria vaginalis [2]: 10
- herbicidal effect index, S. juncoides Rocxb. [3]: 10
- herbicidal effect index, Amaranthus retroflexus [4]: 10
- herbicidal effect index, Echinochloa crus-galli [5]: 10
- herbicidal effect index, Abutilon theophrasti [6]: 10
- herbicidal effect index, Setaria viridis [7]: 10
- herbicidal effect index, Amaranthus retroflexus [8]: 10
- herbicidal effect index, Abutilon theophrasti [9]: 10
- herbicidal effect index, Echinochloa crus-galli [10]: 10
- herbicidal effect index, Setaria viridis [11]: 10

Structure (SMILES): Cn1nc(C(=O)C2=C(O)CCCC2=O)c(=O)n(-c2cccc([N+](=O)[O-])c2)c1=O [I-67]
- Herbicidal effects index number, Echinochloa oryzicola [1]: 10
- Herbicidal effects index number, Monochoria vaginalis [2]: 10
- herbicidal effect index, S. juncoides Rocxb. [3]: 10
- herbicidal effect index, Amaranthus retroflexus [4]: 10
- herbicidal effect index, Echinochloa crus-galli [5]: 10
- herbicidal effect index, Abutilon theophrasti [6]: 10
- herbicidal effect index, Setaria viridis [7]: 10
- herbicidal effect index, Amaranthus retroflexus [8]: 10
- herbicidal effect index, Abutilon theophrasti [9]: 10
- herbicidal effect index, Echinochloa crus-galli [10]: 10
- herbicidal effect index, Setaria viridis [11]: 10

Structure (SMILES): Cn1nc(C(=O)C2=C(O)CCCC2=O)c(=O)n(C)c1=S [I-265]
- Herbicidal effects index number, Echinochloa oryzicola [1]: 10
- Herbicidal effects index number, Monochoria vaginalis [2]: 10
- herbicidal effect index, S. juncoides Rocxb. [3]: 10
- herbicidal effect index, Amaranthus retroflexus [4]: 10
- herbicidal effect index, Echinochloa crus-galli [5]: 10
- herbicidal effect index, Abutilon theophrasti [6]: 10
- herbicidal effect index, Setaria viridis [7]: 10
- herbicidal effect index, Amaranthus retroflexus [8]: 10
- herbicidal effect index, Abutilon theophrasti [9]: 9
- herbicidal effect index, Echinochloa crus-galli [10]: 8
- herbicidal effect index, Setaria viridis [11]: 9

Structure (SMILES): Cn1nc(C(=O)C2=C(O)CCCC2=O)c(=O)n(-c2ccnc(Br)c2)c1=O [I-281]
- Herbicidal effects index number, Echinochloa oryzicola [1]: 10
- Herbicidal effects index number, Monochoria vaginalis [2]: 10
- herbicidal effect index, S. juncoides Rocxb. [3]: 10
- herbicidal effect index, Amaranthus retroflexus [4]: 10
- herbicidal effect index, Echinochloa crus-galli [5]: 9
- herbicidal effect index, Abutilon theophrasti [6]: 9
- herbicidal effect index, Setaria viridis [7]: 9
- herbicidal effect index, Amaranthus retroflexus [8]: 9
- herbicidal effect index, Abutilon theophrasti [9]: 9
- herbicidal effect index, Echinochloa crus-galli [10]: 9
- herbicidal effect index, Setaria viridis [11]: 7

Structure (SMILES): Cn1nc(C(=O)C2=C(O)CCCC2=O)c(=O)n(-c2cccc(C#N)c2)c1=O [I-73]
- Herbicidal effects index number, Echinochloa oryzicola [1]: 10
- Herbicidal effects index number, Monochoria vaginalis [2]: 10
- herbicidal effect index, S. juncoides Rocxb. [3]: 10
- herbicidal effect index, Amaranthus retroflexus [4]: 10
- herbicidal effect index, Echinochloa crus-galli [5]: 9
- herbicidal effect index, Abutilon theophrasti [6]: 10
- herbicidal effect index, Setaria viridis [7]: 8
- herbicidal effect index, Amaranthus retroflexus [8]: 10
- herbicidal effect index, Abutilon theophrasti [9]: 10
- herbicidal effect index, Echinochloa crus-galli [10]: 10
- herbicidal effect index, Setaria viridis [11]: 10

Structure (SMILES): Cc1ccc(F)cc1-n1c(=O)c(C(=O)C2=C(O)CCCC2=O)nn(C)c1=O [I-118]
- Herbicidal effects index number, Echinochloa oryzicola [1]: 10
- Herbicidal effects index number, Monochoria vaginalis [2]: 10
- herbicidal effect index, S. juncoides Rocxb. [3]: 10
- herbicidal effect index, Amaranthus retroflexus [4]: 10
- herbicidal effect index, Echinochloa crus-galli [5]: 10
- herbicidal effect index, Abutilon theophrasti [6]: 9
- herbicidal effect index, Setaria viridis [7]: 9
- herbicidal effect index, Amaranthus retroflexus [8]: 10
- herbicidal effect index, Abutilon theophrasti [9]: 10
- herbicidal effect index, Echinochloa crus-galli [10]: 9
- herbicidal effect index, Setaria viridis [11]: 10

Structure (SMILES): Cc1ccc(C)c(-n2c(=O)c(C(=O)C3=C(O)CCCC3=O)nn(C)c2=O)c1 [I-91]
- Herbicidal effects index number, Echinochloa oryzicola [1]: 10
- Herbicidal effects index number, Monochoria vaginalis [2]: 10
- herbicidal effect index, S. juncoides Rocxb. [3]: 10
- herbicidal effect index, Amaranthus retroflexus [4]: 10
- herbicidal effect index, Echinochloa crus-galli [5]: 9
- herbicidal effect index, Abutilon theophrasti [6]: 10
- herbicidal effect index, Setaria viridis [7]: 10
- herbicidal effect index, Amaranthus retroflexus [8]: 10
- herbicidal effect index, Abutilon theophrasti [9]: 10
- herbicidal effect index, Echinochloa crus-galli [10]: 9
- herbicidal effect index, Setaria viridis [11]: 10
